From patent US8338426B2, “Piperazinyl derivatives useful as modulators of the neuropeptide Y2 receptor” (Janssen Pharmaceutica NV, priority 2007, dated 2012)

Columns and labels:
[1] = biological target: MTP (Homo sapiens, UniProt P55157); assay: MTP assay (triglyceride transfer between vesicles); format: biochemical; settings: read-out: MTP pIC50 (converted)
Protocol: MTP activity was measured using an assay similar to one described by J. R. Wetterau and D. B. Zilversmit in Chemistry and Physics of Lipids (1985) 38, 205-222.
In order to prepare the donor and acceptor vesicles, the appropriate lipids in chloroform were put into a glass test tube and dried under a stream of nitrogen. A buffer containing 15 mM Tris-HCl (pH 7.5), 1 mM ethylenediamine tetra-acetic acid, 40 mM NaCl, 0.02% NaN3 (assay buffer) was added to the dried lipid. The mixture was vortexed briefly and the lipids were then allowed to hydrate for 20 minutes on ice. Vesicles were then prepared by bath sonication (using a Branson 2200 device) at room temperature for at most 15 minutes. Butylated hydroxytoluene was included in all vesicle preparations at a concentration of 0.1%. The lipid transfer assay mixture contained donor vesicles (40 nmole phosphatidylcholine, 7.5 mole % cardiolipin and 0.25 mole % glycerol tri[1-^14C]-oleate), acceptor vesicles (240 nmol phosphatidylcholine) and 5 mg bovine serum albumin in a total volume of 675 μl in a 1.5 ml microcentrifuge tube. Test compound was added dissolved in dimethylsulfoxide (0.13% final concentration). After 5 minutes of pre-incubation at 37° C., the reaction was started by the addition of MTP in 100 μl of a dialysis buffer. The reaction was stopped by the addition of 400 μl […] (DEAE)-52 cellulose (Sephadex) pre-equilibrated in 15 mM Tris-HCl (pH 7.5), 1 mM ethylenediamine tetra-acetic acid and 0.02% NaN3 (1:1 volume/volume). The mixture was agitated for 4 minutes and centrifuged for 2 minutes at maximum speed in an Eppendorf centrifuge (4° C.) to pellet the DEAE-52-bound donor vesicles. An aliquot of the supernatant containing the acceptor liposomes was counted and the [^14C]-counts were used to calculate the percent triglyceride transfer from donor to acceptor vesicles.
Representative compounds of the present invention were measured for binding against the MTP receptor, as described above, with results as listed in Table 2 below.

[2] = biological target: T1, hY2 (Homo sapiens, UniProt P49146); assay: Ca2+ mobilization assay (FLIPR) in KAN-Ts cells; format: cell-based; settings: KANT-S cells, inhibition of PYY stimulated Ca2+ increase, read-out: hY2 pKB (converted)
T1 construct: KAN-Ts endogenously expressing Y2 receptors were used; endogenous in cells; host or cells: KAN-Ts cells stably expressing chimeric G proteins
T1 sequence (P49146 1-381): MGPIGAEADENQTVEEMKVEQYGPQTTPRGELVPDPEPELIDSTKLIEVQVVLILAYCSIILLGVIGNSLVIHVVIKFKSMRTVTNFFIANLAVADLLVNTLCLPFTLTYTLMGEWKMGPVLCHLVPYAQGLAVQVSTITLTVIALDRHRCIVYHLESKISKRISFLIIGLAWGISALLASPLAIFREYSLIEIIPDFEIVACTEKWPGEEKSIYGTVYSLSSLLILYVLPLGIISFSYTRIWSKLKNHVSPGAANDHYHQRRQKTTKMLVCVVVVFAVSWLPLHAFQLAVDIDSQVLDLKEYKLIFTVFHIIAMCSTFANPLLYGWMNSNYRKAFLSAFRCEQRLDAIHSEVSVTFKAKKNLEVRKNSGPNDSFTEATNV
Protocol: The assay was performed using the fluorimetric imaging plate reader (FLIPR) format as described in Dautzenberg, F. M., Biochemical Pharmacology 2005, 69, 1493.
KAN-Ts cells stably expressing chimeric G proteins were seeded at a density of 100,000 cells into poly-d-lysine coated 384-well blackwall, clear-bottom microtiter plates (Corning, N.Y.). One day later, the medium was removed and 50 μl loading medium DMEM high glucose, without serum, supplemented with 10 mM HEPES-acid, 0.1% BSA, 5 mM probenecid and 2 μM Fluo-3AM was added. Cells were loaded for 1 h at 37° C., washed twice with 50 μl assay buffer (5 mM HEPES-acid, 140 mM NaCl, 1 mM MgCl2, 5 mM KCl, 10 mM glucose) and then 30 μl assay buffer was added. Cells were further pre-incubated at room temperature before adding agonists or agonists plus antagonists in 20 μl assay buffer and then measured on a T-channel fluorometric imaging plate reader (FLIPR, Molecular Devices, Sunnyvale, Calif.).
Antagonistic potency values were converted to apparent pKB values using a modified Cheng-Prusoff correction. Apparent pKB=−log IC50/1+[conc agonist/EC50]. Data below are expressed as mean±S.E.M.
The in vitro antagonistic properties of the compound of formula (A) were confirmed using Ca^2+ measurement.

[3] = biological target: T2, rat Y2 receptor (Rattus norvegicus, UniProt Q9ERC0); assay: Neuropeptide Y2 radioligand binding assay, [125I]PYY, rat hippocampus membranes; settings: read-out: rY2 pKi (converted)
T2 construct: membranes from rat or mouse hippocampus were prepared; from tissue; host or cells: rat hippocampus membranes
T2 sequence (Q9ERC0 1-381): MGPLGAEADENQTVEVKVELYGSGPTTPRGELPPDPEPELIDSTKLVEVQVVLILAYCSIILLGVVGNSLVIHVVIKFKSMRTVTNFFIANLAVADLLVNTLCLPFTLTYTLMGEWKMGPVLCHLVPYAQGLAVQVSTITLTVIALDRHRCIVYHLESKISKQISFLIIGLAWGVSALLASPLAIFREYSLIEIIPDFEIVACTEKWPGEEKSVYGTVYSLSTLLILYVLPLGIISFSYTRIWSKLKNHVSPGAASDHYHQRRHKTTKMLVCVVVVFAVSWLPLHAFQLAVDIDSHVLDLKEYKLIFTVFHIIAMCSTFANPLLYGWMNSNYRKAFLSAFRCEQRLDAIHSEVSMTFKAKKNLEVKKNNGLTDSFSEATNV
Protocol: Radioligand binding assays for the human and rat/mouse Y2 receptor were performed as described in Bonaventure, P., D. Nepomuceno, C. Mazur, B. Lord, D. A. Rudolph, J. A. Jablonowski, N. I. Carruthers and T. W. Lovenberg, J Pharmacol Exp Ther. 2004, 308, 1130.
KAN-Ts endogenously expressing Y2 receptors were used, for the rat and mouse Y2 receptor, membranes from rat or mouse hippocampus were prepared. Membranes were incubated with [^125I]PYY (80 pM) in the presence or absence of test compound for 1 h at rt. The reaction was stopped by filtration through GF/C filter plates pre-soaked in 0.3% polyethylenimine and subsequently washed with Tris-HCl, 50 mM, 5 mM EDTA buffer. Plates were dried for 1 h in a 55° C. oven, scintillation fluid was added and the radioactivity was counted in a Packard TopCount. Specific binding to the NPY receptor subtypes was determined by radioactivity that was bound in the presence of 1 μM NPY.
Apparent Ki values were calculated as K=IC50/(1+C/KD), where C is concentration of the radioligand and pKi=−log Ki. Data presented below are expressed as mean±S.E.M.

Chain of MTP (P55157 19-894, species assumed): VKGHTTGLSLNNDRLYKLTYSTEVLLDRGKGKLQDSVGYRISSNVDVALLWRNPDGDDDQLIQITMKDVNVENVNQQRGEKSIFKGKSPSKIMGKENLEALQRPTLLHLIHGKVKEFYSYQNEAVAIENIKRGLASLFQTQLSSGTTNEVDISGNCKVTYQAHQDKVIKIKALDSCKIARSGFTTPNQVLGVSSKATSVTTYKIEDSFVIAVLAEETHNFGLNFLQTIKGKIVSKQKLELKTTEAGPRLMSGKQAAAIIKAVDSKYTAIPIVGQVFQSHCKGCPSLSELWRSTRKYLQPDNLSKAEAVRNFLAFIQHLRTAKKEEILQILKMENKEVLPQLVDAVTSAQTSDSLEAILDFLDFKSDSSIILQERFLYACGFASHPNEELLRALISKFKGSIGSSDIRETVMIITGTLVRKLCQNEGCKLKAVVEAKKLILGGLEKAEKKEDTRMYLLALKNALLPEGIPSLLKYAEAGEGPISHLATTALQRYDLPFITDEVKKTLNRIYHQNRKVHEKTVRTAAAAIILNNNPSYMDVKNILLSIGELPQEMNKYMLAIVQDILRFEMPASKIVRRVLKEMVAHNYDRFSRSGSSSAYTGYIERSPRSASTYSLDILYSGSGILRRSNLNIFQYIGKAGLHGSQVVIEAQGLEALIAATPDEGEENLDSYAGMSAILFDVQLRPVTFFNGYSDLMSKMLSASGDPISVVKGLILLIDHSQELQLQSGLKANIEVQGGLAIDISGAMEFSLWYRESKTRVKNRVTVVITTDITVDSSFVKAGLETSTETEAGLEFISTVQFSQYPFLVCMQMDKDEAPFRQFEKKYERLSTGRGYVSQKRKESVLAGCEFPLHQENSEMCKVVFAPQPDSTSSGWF
Chain of MTP (P07237 18-508 partner, species assumed): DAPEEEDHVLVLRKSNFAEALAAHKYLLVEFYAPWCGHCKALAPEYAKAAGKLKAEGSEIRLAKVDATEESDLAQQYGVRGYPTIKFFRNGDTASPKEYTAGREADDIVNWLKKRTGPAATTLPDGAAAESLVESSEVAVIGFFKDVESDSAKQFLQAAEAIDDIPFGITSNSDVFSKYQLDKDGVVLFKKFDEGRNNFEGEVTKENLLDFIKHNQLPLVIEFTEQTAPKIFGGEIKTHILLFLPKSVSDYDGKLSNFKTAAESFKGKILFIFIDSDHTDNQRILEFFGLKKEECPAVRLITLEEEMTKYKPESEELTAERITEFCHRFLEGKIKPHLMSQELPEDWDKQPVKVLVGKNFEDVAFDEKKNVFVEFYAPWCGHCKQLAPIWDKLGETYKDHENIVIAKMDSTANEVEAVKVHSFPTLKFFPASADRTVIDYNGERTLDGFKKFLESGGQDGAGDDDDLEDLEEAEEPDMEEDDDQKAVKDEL

SMILES: CCN(CC)C(=O)C(c1ccccc1)N1CCN(c2ccc(NC(=O)c3ccccc3-c3cccnc3)cc2F)CC1 (racemic) [Cmpd (A), N-{4-[4-(Diethylcarbamoyl-phenyl-methyl)-piperazin-1-yl]-3-fluoro-phenyl}-2-pyridin-3-yl-benzamide]
- IC50 [1]: 794 nM
- Kb [2]: 2.69 nM
- Ki [3]: 4.57 nM
